Source: paper PMC12354831 (Cell Death Discovery, 2025)

How the values were obtained:
[1] = system: U87-MG cells; experiment: CCK-8 IC50 determination in U87-MG cells with or without GLUT3 KD; format: cell-based, human; conditions: GLUT3 KD vs control, CCK-8, 24 h drug treatment
Protocol: (§1) The GBM cell line was seeded into a 96-well plate at a density of 5 × 10^3 cells per well and incubated at 37 °C in a humidified atmosphere containing 5% CO2 overnight. […] Following 24 h of drug treatment, 10 µL of CCK-8 reagent was added to each well, and the cells were incubated for an additional 1 h at 37 °C. The absorbance was then measured at 450 nm using a microplate reader.
(§2) In this study, the experimental groups were designated as Group A (cells treated with temozolomide (TMZ) or capecitabine (CAPE)), the control group as Group B (cells treated with DMSO), and the blank control group as Group C ([…]). The cell viability rate was calculated using the formula: (A-C)/(B-C) × 100%, where A, B, and C represent the absorbance values of Group A, Group B, and Group C, respectively.

[2] = system: U251-MG cells; experiment: CCK-8 IC50 determination in U251-MG cells with or without GLUT3 OE; format: cell-based, human; conditions: GLUT3 OE vs control, CCK-8, 24 h drug treatment
Protocol: as §1, §2

Structure (SMILES)	fold increase of IC50 on GLUT3 knockdown [1]	reduction of IC50 in GLUT3 overexpressing cells compared to control cells [2]
Nc1ccn([C@@H]2O[C@H](CO)[C@@H](O)[C@@H]2O)c(=O)n1 [cytarabine]	4.3 fold	
Nc1ccn([C@@H]2O[C@H](CO)[C@@H](O)C2(F)F)c(=O)n1 [GEM, gemcitabine]	~ 1.6 fold	~ 81.7%
